We go through one compound from paper PMC11842588, “A first-in-class selective inhibitor of ERK1/2 and ERK5 overcomes drug resistance with a single-molecule strategy” (Signal Transduction and Targeted Therapy, 2025).

A short description of data set [1]: Plasma protein binding rate (ultrafiltration). Type of data set: in vitro ADME. The note with it: SD rat plasma. The protocol: Appropriate amount of SD rat plasma was taken and incubated with the specified concentration of compound at 37 °C for a specified time, and unbound compound solution was obtained by ultrafiltration method, and acetonitrile-containing internal standard compound was added to terminate the reaction, and the remaining compound was quantized by LC-MS to calculate the plasma protein binding rate. Calculation formula: Plasma protein binding rate (%) = (Total blood−Ultrafiltrate)/Total blood * 100%.

In a further data set the target is ERK1 (Homo sapiens, UniProt P27361). Kind of data set: Isothermal titration calorimetry (ITC) assay. As to conditions: 25 °C. The format is binding. The procedure: (§1) The full-length human ERK1 or ERK2 with His-tag was cloned into a pET28a vector. hERK1/2 were expressed in Escherichia coli BL21(DE3), and then were purified using sequential Ni-NTA and Superdex 200 column steps. The SEC purified sample was then concentrated to 10 mg/ml and stored at −80 °C with buffer containing 20 mM HEPES pH 7.5, 150 mM NaCl. ERK5 (residues 48–395) containing His and GST tags was cloned into the pFastBac vector, and the recombinant plasmid was extracted. The recombinant plasmid was transformed into the DH10bac strain, and monoclonal was selected for culture. The recombinant Bacmid was then extracted according to the instructions of the Baculovirus Shuttle Vector Bacmid Mini Preparation Kit (Beyotime) and validated by PCR. 1 × 10^6/well Sf9 cells were counted for transfection and then amplified to obtain P3 ERK5 recombinant baculovirus. It was added to 2 × 10^6/mL Sf9 cells and incubated at 27 °C for 72 h on a shaker to express ERK5. Cells were lysed and supernatant was collected on a Ni-NTA for purification, and a 250 mM imidazole eluate was collected. […]
ERK1, sequence (P27361 whole entry, the tested form may be a part): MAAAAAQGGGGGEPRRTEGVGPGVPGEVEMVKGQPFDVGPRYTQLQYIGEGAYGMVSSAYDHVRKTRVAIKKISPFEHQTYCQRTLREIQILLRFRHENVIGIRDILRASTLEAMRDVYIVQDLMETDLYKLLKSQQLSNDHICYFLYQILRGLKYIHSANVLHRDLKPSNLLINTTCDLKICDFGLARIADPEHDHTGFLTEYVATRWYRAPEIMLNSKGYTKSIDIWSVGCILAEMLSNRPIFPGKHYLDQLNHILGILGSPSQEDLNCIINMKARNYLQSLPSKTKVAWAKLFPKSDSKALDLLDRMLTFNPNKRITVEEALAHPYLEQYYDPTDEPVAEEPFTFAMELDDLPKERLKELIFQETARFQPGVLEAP
(§2) Calorimetric experiments were carried on an Affinity ITC (Waters, Shanghai) with 1 mM SKLB-D18 and 0.1 mM ERK1/2/5. […] The data were analyzed with the NanoAnalyze software employing a single binding site model. […]
(Isothermal titration calorimetry measures the heat released or taken up as one component is titrated into another.)

The target of another data set is ERK2 (Homo sapiens, UniProt P28482). Put plainly: Isothermal titration calorimetry (ITC) assay. Type of data set: binding. The note with it: 25 °C. The procedure:
as §1, §2

ERK2, sequence (P28482 whole entry): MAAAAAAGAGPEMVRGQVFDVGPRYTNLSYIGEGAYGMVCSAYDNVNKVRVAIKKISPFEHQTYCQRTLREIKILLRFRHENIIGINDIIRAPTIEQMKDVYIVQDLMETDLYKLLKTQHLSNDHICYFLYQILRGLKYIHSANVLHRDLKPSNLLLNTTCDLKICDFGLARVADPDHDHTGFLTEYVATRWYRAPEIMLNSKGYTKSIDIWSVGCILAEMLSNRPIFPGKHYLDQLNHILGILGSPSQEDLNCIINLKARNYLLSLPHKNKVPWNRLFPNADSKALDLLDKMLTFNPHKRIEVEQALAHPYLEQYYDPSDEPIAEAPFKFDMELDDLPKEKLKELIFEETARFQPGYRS

In general, fraction unbound refers to the share of the substance not bound to proteins or other matrix. A lower fraction unbound goes with extensive binding. The Kd is a measure of binding affinity in units of concentration. On to `CN(C)Cc1cccc(Nc2ncc(Cl)c(-c3csc(C(=O)NN4CCOCC4)c3)n2)c1` [SKLB-D18, 4-(5-chloro-2-((3-((dimethylamino)methyl)phenyl)amino)pyrimidin-4-yl)-N-morpholinothiophene-2-carboxamide], for which the fraction unbound in data set [1] was 0.816. In addition, the Kd on ERK1 amounted to 127 nM; at ERK2 it was 210 nM.
